Measured values as given in US20230091336A1, “CANNABINOID COMPOSITIONS” (priority 2020, published 2023).

System: CRAC channels (ICRAC)
Assay: Whole-cell patch clamp of IP3-induced ICRAC in Jurkat cells
Type: cell-based, human
Conditions: 10 μM, 50 μM IP3
Method: The ability of CBGA to inhibit store-operated calcium entry (SOCE) within cells was experimentally interrogated (see FIG. 12). Jurkat cells were perfused with 50 μM IP3 to induce store depletion and activation of CRAC channels (the resulting Ca^2+ inward current is known as ICRAC). ICRAC is a long-lasting inward current at −120 mV membrane potential (black trace) that can be blocked by 10 μM CBGA (gray trace).
Inward CRAC currents were induced at −120 mV (gray trace) and outward currents at +40 mV (black trace, where CRAC currents reverse and are essentially absent). At the +40 mV voltage potential, TRPM7 channels produce monovalent outward currents. Perfusion of 50 μM IP3 activates ICRAC at −120 mV as above and the removal of intracellular ATP slowly activates TRPM7 current at +40 mV. Application of 10 μM CBGA blocks both outward TRPM7 and inward CRAC currents (see FIG. 13, black and gray traces, respectively). Without being bound by theory, CBGA may also block TRPM7's kinase activity, similar to other TRPM7 blockers such as NS8593.

CCCCCc1cc(O)c(C/C=C(\C)CCC=C(C)C)c(O)c1C(=O)O [CBGA, (E)-3-(3,7-dimethylocta-2,6-dien-1-yl)-2,4-dihydroxy-6-pentylbenzoic acid]
block of inward calcium current ICRAC at −120 mV: completely blocks
